Like-named read-outs stand apart in the source and are kept apart here.
System: Trichomonas vaginalis ATCC 30001
Assay: viability over time assay, T. vaginalis
Format: cell-based
Conditions: for viability at 10 µg/mL / viability at 20 µg/mL / viability at 40 µg/mL / viability at 80 µg/mL / viability at 160 µg/mL / viability at 320 µg/mL: Trichomonas vaginalis, ATCC30001
Procedure: Trichomonas vaginalis infections in females usually involves vaginal discharge and vulvovaginal irritation but is usually asymptomatic in males. A viability over time assay was used to test the effects of varying concentrations of proguanil on a culture of the protozoa Trichomonas vaginalis ATCC 30001. A suspension of T. vaginalis was prepared and inoculated into microtiter plate wells containing supplemented Trichomonas Medium and proguanil concentrations of 320, 160, 80, 40, 20, and 10 μg/ml. A growth control using pyrogen-free water plus supplemented Trichomonas medium was used in place of the drug because it has no antiprotozoal effect. DGME was the solvent used to dissolve the proguanil, accordingly, a small amount of 10% DGME was used as the solvent control in the medium. These inoculated broth solutions were then allowed to incubate for a period of 6 hours. Samples were taken at 1, 3, and 6 hours and observed using a phase contrast microscope. Multiple microscope fields were counted and the number of viable and nonviable T. vaginalis recorded. In the experiment, the effects of proguanil on the T. vaginalis were observed as loss of flagella movement, loss of undulating membrane movement, and loss of cell refractivity.

CC(C)NC(=N)NC(=N)Nc1ccc(Cl)cc1 [Proguanil, N-(4-Chlorophenyl)-N′-(1-methylethyl)imidodicarbonimidic diamide]
Nonviable (10 ug/ml, 1 Hour): 24 | Viable (10 ug/ml, 1 Hour): 26 | Nonviable (10 ug/ml, 3 Hour): 25 | Viable (10 ug/ml, 3 Hour): 25 | Nonviable (10 ug/ml, 6 Hour): 25 | Viable (10 ug/ml, 6 Hour): 25 | Nonviable (20 ug/ml, 1 Hour): 19 | Viable (20 ug/ml, 1 Hour): 31 | Nonviable (20 ug/ml, 3 Hour): 28 | Viable (20 ug/ml, 3 Hour): 22 | Nonviable (20 ug/ml, 6 Hour): 29 | Viable (20 ug/ml, 6 Hour): 21 | Nonviable (40 ug/ml, 1 Hour): 22 | Viable (40 ug/ml, 1 Hour): 28 | Nonviable (40 ug/ml, 3 Hour): 25 | Viable (40 ug/ml, 3 Hour): 25 | Nonviable (40 ug/ml, 6 Hour): 27 | Viable (40 ug/ml, 6 Hour): 26 | Nonviable (80 ug/ml, 1 Hour): 28 | Viable (80 ug/ml, 1 Hour): 22 | Nonviable (80 ug/ml, 3 Hour): 32 | Viable (80 ug/ml, 3 Hour): 18 | Nonviable (80 ug/ml, 6 Hour): 34 | Viable (80 ug/ml, 6 Hour): 8 | effect on T. vaginalis viability (80 μg/ml, at 3 and 6 hours): next greatest effect | Nonviable (160 ug/ml, 1 Hour): 30 | Viable (160 ug/ml, 1 Hour): 20 | Nonviable (160 ug/ml, 3 Hour): 27 | Viable (160 ug/ml, 3 Hour): 24 | Nonviable (160 ug/ml, 6 Hour): 43 | Viable (160 ug/ml, 6 Hour): 9 | effect on T. vaginalis (160 μg/ml, at 6 hours): strong inhibition and killing effect | Nonviable (320 ug/ml, 1 Hour): 32 | Viable (320 ug/ml, 1 Hour): 18 | Nonviable (320 ug/ml, 3 Hour): 40 | Viable (320 ug/ml, 3 Hour): 13 | Nonviable (320 ug/ml, 6 Hour): 14 | Viable (320 ug/ml, 6 Hour): 0 | effect on T. vaginalis (320 μg/ml, at 1 hour): early inhibition and killing effect | surviving T. vaginalis (320 μg/ml, at 6 hours): no surviving T. vaginalis could be observed | Relative Sensitivity (Compared to Other Strains Tested) (Trichomonas vaginalis (parasitic protozoan) ATCC 30001): Very Sensitive | Approximate Inhibitory Level (Trichomonas vaginalis (parasitic protozoan) ATCC 30001, level at which partial or total inhibition of growth is observed): 80 µg/mL | viability at 10 µg/mL (10 ug/ml, 1 Hour, read-out: PerCent Viable): 52% | viability at 10 µg/mL (10 ug/ml, 1 Hour, read-out: Percent Viable of Growth Control): 118% | viability at 10 µg/mL (10 ug/ml, 3 Hour, read-out: PerCent Viable): 50% | viability at 10 µg/mL (10 ug/ml, 3 Hour, read-out: Percent Viable of Growth Control): 96.2% | viability at 10 µg/mL (10 ug/ml, 6 Hour, read-out: PerCent Viable): 50% | viability at 10 µg/mL (10 ug/ml, 6 Hour, read-out: Percent Viable of Growth Control): 86.2% | viability at 20 µg/mL (20 ug/ml, 1 Hour, read-out: PerCent Viable): 62% | viability at 20 µg/mL (20 ug/ml, 1 Hour, read-out: Percent Viable of Growth Control): 140% | viability at 20 µg/mL (20 ug/ml, 3 Hour, read-out: PerCent Viable): 44% | viability at 20 µg/mL (20 ug/ml, 3 Hour, read-out: Percent Viable of Growth Control): 84.6% | viability at 20 µg/mL (20 ug/ml, 6 Hour, read-out: PerCent Viable): 42% | viability at 20 µg/mL (20 ug/ml, 6 Hour, read-out: Percent Viable of Growth Control): 72.4% | viability at 40 µg/mL (40 ug/ml, 1 Hour, read-out: PerCent Viable): 56% | viability at 40 µg/mL (40 ug/ml, 1 Hour, read-out: Percent Viable of Growth Control): 126% | viability at 40 µg/mL (40 ug/ml, 3 Hour, read-out: PerCent Viable): 50% | viability at 40 µg/mL (40 ug/ml, 3 Hour, read-out: Percent Viable of Growth Control): 96.2% | viability at 40 µg/mL (40 ug/ml, 6 Hour, read-out: PerCent Viable): 49.1% | viability at 40 µg/mL (40 ug/ml, 6 Hour, read-out: Percent Viable of Growth Control): 84.6% | viability at 80 µg/mL (80 ug/ml, 1 Hour, read-out: PerCent Viable): 44% | viability at 80 µg/mL (80 ug/ml, 1 Hour, read-out: Percent Viable of Growth Control): 99.4% | viability at 80 µg/mL (80 ug/ml, 3 Hour, read-out: PerCent Viable): 36% | viability at 80 µg/mL (80 ug/ml, 3 Hour, read-out: Percent Viable of Growth Control): 69.2% | viability at 80 µg/mL (80 ug/ml, 6 Hour, read-out: PerCent Viable): 19% | viability at 80 µg/mL (80 ug/ml, 6 Hour, read-out: Percent Viable of Growth Control): 32.8% | viability at 160 µg/mL (160 ug/ml, 1 Hour, read-out: PerCent Viable): 40% | viability at 160 µg/mL (160 ug/ml, 1 Hour, read-out: Percent Viable of Growth Control): 90.4% | viability at 160 µg/mL (160 ug/ml, 3 Hour, read-out: PerCent Viable): 47.1% | viability at 160 µg/mL (160 ug/ml, 3 Hour, read-out: Percent Viable of Growth Control): 90.5% | viability at 160 µg/mL (160 ug/ml, 6 Hour, read-out: PerCent Viable): 17.3% | viability at 160 µg/mL (160 ug/ml, 6 Hour, read-out: Percent Viable of Growth Control): 29.8% | viability at 320 µg/mL (320 ug/ml, 1 Hour, read-out: PerCent Viable): 36% | viability at 320 µg/mL (320 ug/ml, 1 Hour, read-out: Percent Viable of Growth Control): 81.3% | viability at 320 µg/mL (320 ug/ml, 3 Hour, read-out: PerCent Viable): 24.5% | viability at 320 µg/mL (320 ug/ml, 3 Hour, read-out: Percent Viable of Growth Control): 47.2% | viability at 320 µg/mL (320 ug/ml, 6 Hour, read-out: PerCent Viable): 0% | viability at 320 µg/mL (320 ug/ml, 6 Hour, read-out: Percent Viable of Growth Control): 0%
